# According to patent US6773881B2, “Methods of modulating hair growth” (The General Hospital Corporation, priority 2000, dated 2004):
# “Also recorded” adds a separate entry of the source.
# System: mouse vibrissa follicles
# Experiment: Mouse vibrissa organ culture system
# Type: cell-based, mice
# Settings: 4 days
# Description: Whisker pads were isolated from three 5 week old female C57/BL mice and were shortly immersed in 70% ethanol in phosphate-buffered saline (PBS), followed by a 10 minute incubation in William's E medium containing 400 U/ml penicillin, 400 μg/ml streptomycin, and 1.0 μg/ml fungizone (all from GibcoBRL). Vibrissa follicles in the anagen growth phase were isolated under a dissecting microscope, and the part of the vibrissa shaft that extend over the epidermal surface was cut off. Vibrissa follicles were then incubated on Millapore membranes in William's E medium alone (n-8), in medium containing 50 ng/ml recombinant murine VEGF (R&D Systems; n=6), or medium containing 5% fetal bovine serum (FBS; n=8). The media were replaced by fresh media after 2 days, and the follicles were incubated over a total period of 4 days. After 4 days, the length of the outgrowing hair shafts was measured by image analysis of digital pictures, taken under a Nikon E600 microscope.
# In addition, whisker follicles were isolated and cultured as described above. Seven follicles were treated with 5 μg/ml of a goat anti-mouse VEGF neutralizing antibody (R&D Systems), and 8 follicles were treated with 5 μg/ml of normal goat IgG.
substance,measurement,setting,value
VEGF,average hair growth (length of outgrowing hair shafts),"50 ng/ml recombinant murine VEGF, control 1.963±0.101 mm",1.959±0.086 mm
same,effect on in vitro hair growth compared with control,"vibrissa organ culture, absence of a vascular system",no significant differences; also recorded: did not influence
